The values below come from patent US20180346525A1, “DIAGNOSTIC AND THERAPEUTIC QUORUM-SENSING-MANIPULATION MOLECULES THAT ARE TRACKABLE FOR HEALTH-CARE AND INDUSTRIAL SYSTEMS” (The Trustees of Princeton University, priority 2017, published 2018).

The assay has as its system S. aureus Agr QS (AgrC-I/AgrA, agrP3 promoter). In words: Agr QS fluorescence reporter (agrP3-mkate2) in S. aureus reporter strain. Particulars: FIG. 3. It counts as cell-based, Staphylococcus aureus. The text has this: FIG. 1 illustrates the Agr QS responses of S. aureus to exogenously supplied agonists and antagonists or conjugates of those compounds attached to detectable moieties. To follow the QS status of S. aureus cells, confocal microscopy and an S. aureus reporter strain that produced the fluorescent protein mKate2 in response to exogenous addition of AIP-I was used. The reporter strain was a ΔagrBDCA ΔRNAIII S. aureus mutant harboring agrCA driven by the native agrP2 promoter. […] The plasmid also harbored the Agr-activated agrP3 promoter fused to mkate2. […] This QS response was repressed by the administration of AIP-II. […] However, once the cells detected the exogenous autoinducers, the cells produced mKate2 (red fluorescent protein). […]
Transcription from fluorescence reporter genes was measured in S. aureus strain MK242. […] Using a Synergy 2 plate reader (Biotek, Winooski, Vt.), GFPmut2 and mKate2 levels were measured at 484 nm/528 nm and 588 nm/633 nm, respectively. […]
Imaging was performed using a Nikon Eclipse Ti inverted microscope (Melville, N.Y.) fitted with a Yokogawa CSU X-1 confocal spinning disk scanning unit (Biovision Technologies, Exton, Pa.) and DU-897 X-9351 camera (Andor, Concord, Mass.). […] In the area of an individual cell, both the constitutive GFPmut2 fluorescence and the QS controlled mKate2 fluorescence were measured, subtracted from background signals and summed. […]

As for AIP-I, the “Specific binding to AgrC receptors, indicated by AIP-II competition” value was “specifically bind to AgrC receptors”. Also, for the setting “1 μM compound alone”, the “mKate2 production in the reporter strain” value is reported as “produced”.
